Results as given in paper PMC6691788, “Design and synthesis of phthalazine-based compounds as potent anticancer agents with potential antiangiogenic activity via VEGFR-2 inhibition” (Journal of Enzyme Inhibition and Medicinal Chemistry, 2019).

Tests used:
HL-60(TB) = assay: NCI 60 cell panel SRB screen; type: cell-based; conditions: Homo sapiens
RXF 393 = assay: NCI 60 cell panel SRB screen; type: cell-based; conditions: Homo sapiens
NCI-H522 = assay: NCI 60 cell panel SRB screen; type: cell-based; conditions: Homo sapiens
NCI-H23 = assay: NCI 60 cell panel SRB screen; type: cell-based; conditions: Homo sapiens
SK-MEL-28 = assay: NCI 60 cell panel SRB screen; type: cell-based; conditions: Homo sapiens
OVCAR-8 = assay: NCI 60 cell panel SRB screen; type: cell-based; conditions: Homo sapiens
A498 = assay: NCI 60 cell panel SRB screen; type: cell-based; conditions: Homo sapiens
COLO 205 = assay: NCI 60 cell panel SRB screen; type: cell-based; conditions: Homo sapiens
UO-31 = assay: NCI 60 cell panel SRB screen; type: cell-based; conditions: Homo sapiens
NCI-H460 = assay: NCI 60 cell panel SRB screen; type: cell-based; conditions: Homo sapiens
OVCAR-4 = assay: NCI 60 cell panel SRB screen; type: cell-based; conditions: Homo sapiens
IGROV1 = assay: NCI 60 cell panel SRB screen; type: cell-based; conditions: Homo sapiens, IGROV-1
full NCI 60 cell panel = assay: NCI 60 cell panel SRB screen, whole panel; type: cell-based, human; conditions: Homo sapiens, 60 cell, NCI 5-log dose, full 60 cell panel; read-out: GI50 values, range over the tested cell lines
SF-539 = assay: NCI 60 cell panel SRB screen; type: cell-based, human
SW-620 = assay: NCI 60 cell panel SRB screen; type: cell-based; conditions: Homo sapiens
MDA-MB-435 = assay: NCI 60 cell panel SRB screen; type: cell-based; conditions: Homo sapiens
NCI/ADR-RES = assay: NCI 60 cell panel SRB screen; type: cell-based; conditions: Homo sapiens
SK-MEL-2 = assay: NCI 60 cell panel SRB screen; type: cell-based
EKVX = assay: NCI 60 cell panel SRB screen; type: cell-based, human
786-0 = assay: NCI 60 cell panel SRB screen; type: cell-based; conditions: Homo sapiens
[1] = 5 log dose, 48 h, read-out: LC50 (the source's name)
[2] = single dose 10 μM, read-out: percent cell growth promotion
[3] = Homo sapiens, SF-539, 5 log dose

Clc1ccc(Nc2nnc(COc3ccccc3)c3ccccc23)cc1 [Compound 17a, N-(4-Chlorophenyl)-4-(phenoxymethyl)phthalazin-1-amine]
GI50 (HL-60(TB); 5 log dose): 3.56 µM
IC (TGI) (HL-60(TB); 5 log dose): 11.9 µM
CC50 (HL-60(TB); [1]): > 25 µM
activity at 10 µM (HL-60(TB); [2]): -15.7%
GI50 (RXF 393; RXF 393, 5 log dose): 1.01 µM
IC (TGI) (RXF 393; RXF 393, 5 log dose): 4.97 µM
CC50 (RXF 393; RXF 393, 5 log dose, 48 h, read-out: LC50 (the source's name)): 14.4 µM
activity at 10 µM (RXF 393; RXF 393, single dose 10 μM, read-out: percent cell growth promotion): -5.93%
GI50 (NCI-H522; NCI-H522, 5 log dose): 0.35 µM
IC (TGI) (NCI-H522; NCI-H522, 5 log dose): 4.04 µM
CC50 (NCI-H522; NCI-H522, 5 log dose, 48 h, read-out: LC50 (the source's name)): 16.7 µM
activity at 10 µM (NCI-H522; NCI-H522, single dose 10 μM, read-out: percent cell growth promotion): -17.4%
GI50 (NCI-H23; NCI-H23, 5 log dose): 1.56 µM
IC (TGI) (NCI-H23; NCI-H23, 5 log dose): 7.87 µM
CC50 (NCI-H23; NCI-H23, 5 log dose, 48 h, read-out: LC50 (the source's name)): > 25 µM
activity at 10 µM (NCI-H23; NCI-H23, single dose 10 μM, read-out: percent cell growth promotion): 4.18%
GI50 (SK-MEL-28; SK-MEL-28): 2.84 µM
IC (TGI) (SK-MEL-28; SK-MEL-28, read-out: TGI): 7.23 µM
activity at 10 µM (SK-MEL-28; SK-MEL-28, read-out: percent cell growth promotion): 4.73%
CC50 (SK-MEL-28; SK-MEL-28, 5 log dose, 48 h, read-out: LC50 (the source's name)): 18.4 µM
GI50 (OVCAR-8; OVCAR-8, 5 log dose): 3.49 µM
IC (TGI) (OVCAR-8; OVCAR-8, 5 log dose): 15 µM
CC50 (OVCAR-8; OVCAR-8, 5 log dose, 48 h, read-out: LC50 (the source's name)): > 25 µM
activity at 10 µM (OVCAR-8; OVCAR-8, single dose 10 μM, read-out: percent cell growth promotion): 5.02%
GI50 (A498; A498, 5 log dose): 0.68 µM
IC (TGI) (A498; A498, 5 log dose): 3.64 µM
CC50 (A498; A498, 5 log dose, 48 h, read-out: LC50 (the source's name)): 10.6 µM
activity at 10 µM (A498; A498, single dose 10 μM, read-out: percent cell growth promotion): -17.3%
GI50 (COLO 205; COLO 205, 5 log dose): 0.45 µM
IC (TGI) (COLO 205; COLO 205, 5 log dose): 4.38 µM
CC50 (COLO 205; COLO 205, 5 log dose, 48 h, read-out: LC50 (the source's name)): 16.1 µM
activity at 10 µM (COLO 205; COLO 205, single dose 10 μM, read-out: percent cell growth promotion): -5.75%
GI50 (UO-31; UO-31, 5 log dose): 0.72 µM
IC (TGI) (UO-31; UO-31, 5 log dose): 5.2 µM
CC50 (UO-31; UO-31, 5 log dose, 48 h, read-out: LC50 (the source's name)): 23.9 µM
activity at 10 µM (UO-31; UO-31, single dose 10 μM, read-out: percent cell growth promotion): -12.3%
GI50 (NCI-H460; NCI-H460, 5 log dose): 2.7 µM
IC (TGI) (NCI-H460; NCI-H460, 5 log dose): 7.12 µM
LC50 (concentration causing 50% cell kill) (NCI-H460; NCI-H460, 5 log dose, 48 h): 18.8 µM
activity at 10 µM (NCI-H460; NCI-H460, single dose 10 μM, read-out: percent cell growth promotion): 3.1%
GI50 (OVCAR-4; OVCAR-4, 5 log dose): 2.09 µM
IC (TGI) (OVCAR-4; OVCAR-4, 5 log dose): > 25 µM
CC50 (OVCAR-4; OVCAR-4, 5 log dose, 48 h, read-out: LC50 (the source's name)): > 25 µM
activity at 10 µM (OVCAR-4; OVCAR-4, single dose 10 μM, read-out: percent cell growth promotion): 18.1%
GI50 (IGROV1; IGROV1, 5 log dose): 1.14 µM
IC (TGI) (IGROV1; IGROV1, 5 log dose): 6.37 µM
CC50 (IGROV1; IGROV1, 5 log dose, 48 h, read-out: LC50 (the source's name)): > 25 µM
activity at 10 µM (IGROV1; IGROV1, single dose 10 μM, read-out: percent cell growth promotion): 16.1%
GI50 (full NCI 60 cell panel): 0.15 to 8.41 µM
GI50 (SF-539; [3]): 3.12 µM
IC (TGI) (SF-539; [3]): 7.58 µM
CC50 (SF-539; Homo sapiens, SF-539, 5 log dose, 48 h, read-out: LC50 (the source's name)): 18.4 µM
percent cell growth promotion (SF-539; SF-539, single dose 10 μM): 8.42%
GI50 (SW-620; SW-620, 5 log dose): 2.86 µM
IC (TGI) (SW-620; SW-620, 5 log dose): 7.79 µM
CC50 (SW-620; SW-620, 5 log dose, 48 h, read-out: LC50 (the source's name)): 21.2 µM
activity at 10 µM (SW-620; SW-620, single dose 10 μM, read-out: percent cell growth promotion): 15.4%
GI50 (MDA-MB-435; MDA-MB-435): 1.01 µM
IC (TGI) (MDA-MB-435; MDA-MB-435, read-out: TGI): 5.31 µM
activity at 10 µM (MDA-MB-435; MDA-MB-435, read-out: percent cell growth promotion): -3.33%
CC50 (MDA-MB-435; MDA-MB-435, 5 log dose, 48 h, read-out: LC50 (the source's name)): 16.2 µM
GI50 (NCI/ADR-RES; 5 log dose): 2.62 µM
IC (TGI) (NCI/ADR-RES; 5 log dose): 16.6 µM
CC50 (NCI/ADR-RES; [1]): > 25 µM
activity at 10 µM (NCI/ADR-RES; [2]): -1.13%
GI50 (SK-MEL-2; Homo sapiens): 0.97 µM
IC (TGI) (SK-MEL-2; Homo sapiens, read-out: TGI): 5.13 µM
CC50 (SK-MEL-2; Homo sapiens, SK-MEL-2, 5 log dose, 48 h, read-out: LC50 (the source's name)): 15.1 µM
percent cell growth promotion (SK-MEL-2; SK-MEL-2, single dose 10 μM): -26.47%
GI50 (EKVX; Homo sapiens, 5 log dose): 0.67 µM
IC (TGI) (EKVX; Homo sapiens, 5 log dose): 7.32 µM
LC50 (EKVX; Homo sapiens, 5 log dose, 48 h): > 25 µM
percent cell growth promotion (EKVX; single dose 10 μM): 6.53%
GI50 (786-0; 786-0, 5 log dose): 2.6 µM
IC (TGI) (786-0; 786-0, 5 log dose): 8.11 µM
CC50 (786-0; 786-0, 5 log dose, 48 h, read-out: LC50 (the source's name)): > 25 µM
activity at 10 µM (786-0; 786-0, single dose 10 μM, read-out: percent cell growth promotion): 5.25%
